Experimental data taken from US11732240B2, “Direct conversion method of somatic cell into Hepatic stem cell, hepatic cell, or cholangiocyte” (UNIST(ULSAN NATIONAL INSTITUTE OF SCIENCE AND TECHNOLOGY), priority 2016, dated 2023).

Legend:
CYP related genes = experiment: qRT-PCR of CYP related genes in induced hepatocytes after drug treatment; type: cell-based, mouse; details: iHep; 25 mM 3-Mc, 1 uM Dex or 50 mM ethanol; 72 hrs; versus DMSO control
Protocol: Total RNA was extracted and cDNA was synthesized in the same method as Example 1. qRT-PCR was performed using synthesized cDNA. mRNA expression of specific genes was confirmed using SYBR Green I Master (Roche, 04887352001) and primers in LightCycler® 480 equipment. The average value was calculated for three analyzes and normalized using Gapdh (5′-[…]-3′ (SEQ ID NO: 94) and 5′-[…]-3′ (SEQ ID NO: 95)). The expression level of mRNA was compared using comparative Ct method. Primer sequences used in qRT-PCR were shown below (sequences below were represented in the 5′ to 3′ direction).
The CYP family members were known to be regulated by aryl hydrocarbon receptor (AhR), constitutive androstane receptor (CAR), pregnane X receptor (PXR), and nuclear receptor which were abundantly found in liver tissue. In order to confirm whether hepatocytes induce CYP when a stimulus was given to such receptors, chemical compounds such as 3-methylcholanthrene (3Mc) which acts on aryl hydrocarbon receptors (Cyp1 family members) and glucocorticoid (Dex, dexamethasone) which acts on glucocorticoid receptors (glucocorticoid receptor regulating CAR and PXR is upstream of Cyp2/3 family members) were treated to receptors.
Specifically, cells were cultured with 60% confluency in HEP medium in which dexamethasone was not added. […]

hepatocytes = details: 50 mM EtOH for 48 hrs

accumulation of fats and droplets in cytoplasm of hepatocytes (hepatocytes)	Compound	expression of CYP family genes (mRNA) (CYP related genes)
	Cc1ccc2cc3c(ccc4ccccc43)c3c2c1CC3 [3-methylcholanthrene]	induced
accumulation of fats	CCO [ethanol]	
